Common to all, as to experiment: NCI anticancer screen, dose series, 48 h
Experiment [1] has as its system KM20L2 colon.
Experiment [2] has as its system SK-OV-3 ovarian.
Experiment [3] concerns DLD-1 colon.
In experiment [4] the test system is SW-620 colon.
The subject of experiment [5] is NCI-H522 lung.
The subject of experiment [6] is HCT-116 colon.
The subject of experiment [7] is UO-31 renal.
Experiment [8] has as its system A498 renal.
Experiment [9] has as its system SF-295 CNS.
Experiment [10] deals with COLO 205 colon.
Experiment [11] has as its system M14 melanoma.
Experiment [12] concerns CCRF-CEM leukemia.
Experiment [13] deals with K-562 leukemia.
For experiment [14], the system named is HOP-62 NSCLC.
The test system of experiment [15] is NCI-H23 lung.
For experiment [16], the system named is EKVX NSCLC.
For experiment [17], the system named is RXF 393 renal.
Experiment [18] deals with IGROV1 ovarian.
Experiment [19] has as its system CAKI-1 renal.

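In this assay, cells in 96-well plates receive the compound at five concentrations for 48 hours. Endpoints are linearly interpolated between the surrounding concentrations. Definition used: TGI = concentration required for complete inhibition of growth.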 Where only a bound is given, the exact number is not on record here.

As for `COC(=O)/C(=N\NC(N)=O)C(C#N)c1ccccc1` (stereo unspecified), the TGI in [1], in [2], in experiment [3], in experiment [4], in experiment [5] and in [6] was > 100 µM each time. Also, the TGI in experiment [7], in experiment [8], in experiment [9], in [10], in experiment [11] and in experiment [12] was > 100 µM throughout. For the same compound, the TGI in [13], in experiment [14], in experiment [15], in experiment [16] and in experiment [17] was > 100 µM each time.

On to `COc1ccc(-c2cc(=O)c3cc(Cl)ccc3[nH]2)cc1`, for which the TGI in experiment [18], in [1], in experiment [2], in experiment [3], in experiment [4] and in experiment [5] was > 100 µM in each case. For the same compound, the TGI in [6], in experiment [7], in [9], in [10], in [11] and in experiment [12] was > 100 µM in each case. Also, the TGI in experiment [13], in [14], in experiment [15], in [16] and in experiment [17] was > 100 µM in each case.

`Cc1cc2c(=O)c(C)n[nH]c2c(C#N)c1C`: the TGI in experiment [18], in experiment [1], in experiment [2], in experiment [3], in [4] and in experiment [6] was > 100 µM in each case. The TGI in experiment [7], in experiment [9], in experiment [10], in [12], in experiment [14] and in [15] was > 100 µM each time. Further, the TGI in experiment [16] and in experiment [17] was > 100 µM throughout.

With `Cc1cccc(N=Cc2ccc(N(CCC#N)S(=O)(=O)c3ccccc3)cc2C)c1`, the TGI in [18], in [1], in [2], in experiment [3], in experiment [4] and in experiment [5] was > 100 µM throughout. Moreover, the TGI in experiment [6], in experiment [7], in experiment [8], in experiment [9], in [19] and in [10] was > 100 µM in each case. Further, the TGI in [11], in experiment [12], in [13], in experiment [14], in experiment [15] and in experiment [16] was > 100 µM each time.

Regarding `CO/N=C(/C(=O)Nc1c[n+](CC(=O)[O-])cs1)c1csc(N)n1`, the TGI in experiment [18], in experiment [1], in experiment [2], in [3], in experiment [4] and in experiment [5] was > 100 µM each time. Further, the TGI in experiment [6], in [7], in experiment [8], in [9], in [19] and in experiment [10] was > 100 µM throughout. The TGI in [11], in experiment [12], in experiment [13], in experiment [15] and in [16] was > 100 µM throughout.

Take `O=c1c(C(c2ccc([N+](=O)[O-])cc2)c2c(O)c3ccccc3n(-c3ccccc3)c2=O)c(O)c2ccccc2n1-c1ccccc1`: the TGI is > 100 µM in [18]; > 100 µM in experiment [1]; > 100 µM in experiment [2]; > 100 µM in experiment [3]; 57.7 µM in experiment [4]; 86.6 µM in [5]. In addition, the TGI was 76.5 µM in experiment [6]; 21.3 µM in experiment [7]; 33.3 µM in experiment [9]; > 100 µM in [19]; 63.4 µM in [10]; 13.4 µM in experiment [12]. In addition, the TGI in [13] was > 100 µM; in [14], 37.4 µM; in [15], 34.3 µM; in [16] it was 59.7 µM; in [17], 40.1 µM.

In the case of `CN1N=C2c3ccccc3OC(c3ccccc3)[C@H]2C1c1ccccc1` (stereo partly specified), the TGI in experiment [18], in [1], in [2], in experiment [3], in experiment [4] and in experiment [5] was > 100 µM in each case. Moreover, the TGI in experiment [6], in [7], in experiment [8], in experiment [9], in [10] and in [11] was > 100 µM each time. For the same compound, the TGI in experiment [12] is > 100 µM; in experiment [13] it was > 100 µM; in experiment [14], > 100 µM; in experiment [15] it was > 100 µM; in experiment [16], > 100 µM; in experiment [17], 88.5 µM.

As for `CNS(=O)(=O)NNS(=O)(=O)c1ccc(F)cc1`, the TGI in experiment [18], in experiment [1], in experiment [3], in experiment [4], in [5] and in experiment [6] was > 100 µM in each case. The TGI in experiment [7], in experiment [8], in [9], in experiment [19], in experiment [10] and in [11] was > 100 µM in each case. The TGI in experiment [12], in [13], in experiment [14], in experiment [15], in experiment [16] and in experiment [17] was > 100 µM each time.

Values taken from PubChem BioAssay (NCI).
